From ChEMBL document CHEMBL1153604, “Inhibition of Pseudomonas aeruginosa quorum sensing by AI-2 analogs” (Bioorg Med Chem Lett, 2009) come the findings set out here.

Structures are written as SMILES. pEC50: −log10 of the molar value. The source made the active and inactive calls. The calls are words filed in the database; no cut-off is given here.

The test system of experiment [1] is Pseudomonas aeruginosa PAO1. The experiment is described as follows: Inhibition of wild type Pseudomonas aeruginosa PAO1-luxCDABE quorm sensing measured after 20 mins by luminescence assay.
For experiment [2], the system named is Pseudomonas aeruginosa. As to the kind of experiment: Inhibition of Pseudomonas aeruginosa PAO-JP2-luxCDABE quorm sensing at 200 uM measured every 20 min by luminescence assay in presence of 3-oxo-C12-HSL.
The target of experiment [3] is Autoinducer 2-binding periplasmic protein LuxP (Vibrio harveyi, UniProt P54300). The experiment is described as follows: Agonist activity at Vibrio harveyi BB170 LuxP assessed as inhibition of autoinducer-2-induced quorum sensing after 5 hrs by luminescence assay. It is filed as functional.
Experiment [4] deals with Pseudomonas aeruginosa PAO1. As to the kind of experiment: Inhibition of wild type Pseudomonas aeruginosa PAO1 assessed as reduction in pyocyanin production at 100 uM after 19 hrs […]. On the set-up: scale not given: the % may be the effect or the level left.
The subject of experiment [5] is Pseudomonas aeruginosa. As to the kind of experiment: Inhibition of Pseudomonas aeruginosa PAO-JP2-luxCDABE quorm sensing measured every 20 mins in presence of 3-oxo-C12-HSL.
The test system of experiment [6] is Pseudomonas aeruginosa. As to the kind of experiment: Inhibition of wild type Pseudomonas aeruginosa PAO1-luxCDABE growth at >200 uM by luminescence assay. It is filed as functional, organism-based.
Experiment [7] has as its target Autoinducer 2-binding periplasmic protein LuxP (Vibrio harveyi) (UniProt P54300). The experiment is described as follows: Agonist activity at Vibrio harveyi MM30 LuxP assessed as inhibition of autoinducer-2-induced quorum sensing. It is filed as functional.
Experiment [8] has as its system Pseudomonas aeruginosa. As to the kind of experiment: Inhibition of wild type Pseudomonas aeruginosa PAO1 growth at 100 uM. It is filed as functional, organism-based.

Autoinducer 2-binding periplasmic protein LuxP, sequence (P54300 whole entry): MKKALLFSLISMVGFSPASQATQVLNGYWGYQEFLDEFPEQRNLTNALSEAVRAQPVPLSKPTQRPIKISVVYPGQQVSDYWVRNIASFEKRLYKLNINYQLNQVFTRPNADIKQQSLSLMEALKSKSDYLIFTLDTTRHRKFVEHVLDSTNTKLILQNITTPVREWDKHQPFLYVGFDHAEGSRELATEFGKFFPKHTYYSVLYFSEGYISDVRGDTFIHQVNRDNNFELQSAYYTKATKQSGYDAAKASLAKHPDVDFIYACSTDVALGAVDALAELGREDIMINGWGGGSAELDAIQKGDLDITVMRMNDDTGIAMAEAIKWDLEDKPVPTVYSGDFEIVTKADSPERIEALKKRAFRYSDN
Autoinducer 2-binding periplasmic protein LuxP (Vibrio harveyi), sequence (P54300 whole entry): as above

As to `CCCCCC(=O)C(=O)[C@@H](O)CO`, the inhibition in experiment [1] and in experiment [2] was 40% throughout. Further, the negative-log EC50 (pEC50) in experiment [3] is 5.87. The Activity was 53% in experiment [4] and “Dose-dependent effect” in experiment [5]. Moreover, the inhibition entry in experiment [6] is “inactive”. The outcome in experiment [7] was inactive.
Regarding `CCCC(=O)C(=O)[C@@H](O)CO`, the pEC50 in experiment [3] is 6.12. Further, the inhibition result in experiment [8] was “inactive”. Besides, the result in experiment [7] was inactive.
Regarding `CCCCCCCC(=O)C(=O)[C@@H](O)CO`, in experiment [3], the pEC50 is 5.74. In addition, the inhibition result in experiment [8] was “inactive”. In experiment [7], the outcome was inactive.
With `CCCCCCC(=O)C(=O)[C@@H](O)CO`, in experiment [3], the pEC50 is 5.82. Further, the inhibition entry in experiment [8] was “inactive”. Moreover, the result in experiment [7] was inactive.
Take `CCC(=O)C(=O)[C@@H](O)CO`: the pEC50 in experiment [3] was 6.24. For the same molecule, the inhibition result in experiment [8] is “inactive”. In addition, the result in experiment [7] was Active.
`CCCCC(=O)C(=O)[C@@H](O)CO`: the inhibition in experiment [1] and in experiment [2] was 40% throughout. Besides, the pEC50 in experiment [3] was 6.00. For the same molecule, the Activity was 59% in experiment [4] and “Dose-dependent effect” in experiment [5]. For the same molecule, the inhibition entry in experiment [6] was “inactive”. Further, the result in experiment [7] was inactive.
As to `CC(=O)C(=O)[C@@H](O)CO`, the pEC50 in experiment [3] was 6.82. Further, the inhibition entry in experiment [8] was “inactive”. The result in experiment [7] was inactive.
